Here are results for 5 compounds from patent publication US4789675A, “1,4-benzoxazine derivatives and pharmaceutical use” (priority 1986, dated 1988).

The subject of experiment [1] is contraction of rabbit aorta strip caused by KCl. Nature of the experiment: Vasodilating action: inhibition of contraction of aorta strip caused by KCl. Particulars: Oryctolagus cuniculus; compound 10^-5 M; KCl (6.0 mM); treated 30 minutes before the test; read-out: Inhibitory percent against contraction (KCl). The method, then: (§1) A spiral strip of aorta of a rabbit (2 to 3 mm width, about 3 cm length) was allowed to equilibrate by hanging under 2 g force in a Krebs-Henseleitsolution. The solution was saturated with a mixture gas of 97% O2 -3% CO2 which was warmed to 37° C. Inhibitory actions of compounds (10^-5 M) of this invention against contraction of the aorta strip caused by KCl ([…]), norepinephrine (NE) (10^-6 M) or serotonin (5-HT) (10^-6 M), by treating the strip with a compound of this invention 30 minutes before the test (15 minutes in the case of 5-HT), are shown in Table 1 as inhibitory percentage.

In experiment [2] the test system is contraction of rabbit aorta strip caused by norepinephrine (NE). Nature of the experiment: Vasodilating action: inhibition of contraction of aorta strip caused by norepinephrine (NE). Particulars: Oryctolagus cuniculus; compound 10^-5 M; NE 10^-6 M; treated 30 minutes before the test; read-out: Inhibitory percent against contraction (NE). The procedure: as §1
Experiment [3] has as its system contraction of rabbit aorta strip caused by serotonin (5-HT). Nature of the experiment: Vasodilating action: inhibition of contraction of aorta strip caused by serotonin (5-HT). To be noted: Oryctolagus cuniculus; compound 10^-5 M; 5-HT 10^-6 M; treated 15 minutes before the test; read-out: Inhibitory percent against contraction (5-HT). The procedure:
as §1

The test system of experiment [4] is Spontaneously hypertensive rats. Nature of the experiment: Antihypertensive action in spontaneously hypertensive rats (tail-cuff). To be noted: 1 hour after administration. The format is in vivo, rat. The method, then: Spontaneously hypertensive rats (male, 12 to 13 weeks old, blood pressure before administration of drug was about 200 mmHg) were used in groups of 3 individuals. After measuring tail arterial pressure of these animals by the tail-cuff method, the animals were orally given 3 to 60 mg/kg of each test compound of this invention as 2 ml of its suspension in gum arabic. Blood pressure measurements were made again one hour after administration of each test compound.

Experiment [5] deals with caffeine-induced contraction of rabbit aorta strip depending on intracellular Ca^++. Nature of the experiment: Intracellular Ca++ antagonism: inhibition of caffeine-induced contraction of aorta strip in Ca-free/EGTA solution. Particulars: Oryctolagus cuniculus; compound 10^-5 M; caffeine 20 mM; Ca++ 0 mM, EGTA 5 mM; read-out: Inhibitory percent (caffeine contraction). The procedure: A spiral strip of aorta of a rabbit (2 to 3 mm width, aobut 3 cm length) was allowed to equilibrate by hanging under 2 g force in a Krebs-Henseleitsolution. The solution was saturated with a mixture gas of 97% O2 -3% CO2, which was warmed to 37° C. The strip was moved into another Krebs-Henseleit solution containing Ca^++ OmM and EGTA 5 mM. Five minutes later, caffeine (20 mM) was added to the solution. The resulting contraction of the strip was made as the index of the contraction depending on intracellular Ca^++.

For the compound `O=C1Nc2cc([N+](=O)[O-])ccc2OC1CCCN1CCN(c2ccc(F)cc2)CC1` (centres unmarked) [Example 6, 2-{3-[4-(4-fluorophenyl)-1-piperazinyl]propyl}-6-nitro-2H-1,4-benzoxazin-3(4H)-one], the results for the inhibition at 10 µM in experiment [1], in experiment [2] and in experiment [3] were 37%, 100% and 81%, respectively. Also, the “Antihypertensive effect (Δ mm Hg)” value in experiment [4] (60 mg/kg oral) came to 43 mm Hg.

For the compound `Cc1ccc2c(c1)NC(=O)C(CCCN1CCN(c3ccc(F)cc3)CC1)O2` (centres unmarked) [Example 3], the inhibition at 10 µM in experiment [1] was 10%; in experiment [2], 99%; in experiment [3] it was 91%; in experiment [5], 60%. Also, the “Antihypertensive effect (Δ mm Hg)” value in experiment [4] (60 mg/kg oral) came out at 45 mm Hg.

In the case of `O=C1Nc2cc3c(cc2OC1CCCCN1CCN(c2ccc(F)cc2)CC1)CCCC3` (centres unmarked) [Example 22], the inhibition at 10 µM in experiment [1] was 14%; in experiment [2] it was 95%; in experiment [3], 38%. Moreover, the “Antihypertensive effect (Δ mm Hg)” value in experiment [4] (3 mg/kg oral) stood at 23 mm Hg.

As to `Cc1ccc2c(c1)NC(=O)C(CCN1CCN(c3ccc(F)cc3)CC1)O2` (centres unmarked) [Example 5], the inhibition at 10 µM was found to be 9% in experiment [1], 86% in experiment [2], 100% in experiment [3] and 58% in experiment [5].

Take `O=C1Nc2cc(Cl)ccc2OC1CCCN1CCN(c2ccc(F)cc2)CC1` (centres unmarked) [Example 7]: the results for the inhibition at 10 µM in experiment [1], in experiment [2] and in experiment [3] were 29%, 98% and 81%, respectively.
